Assay results as given in US12421489B2, “Biological control of plant pathogenic microorganisms” (priority 2016, dated 2025).

Test system: Penicillium spp.
Assay: Assay 8: wound protection of ‘Hongyang’ kiwifruit, Penicillium spp.
Format: in vivo
Settings: wounded ‘Hongyang’ kiwifruit, treatment 24 h before Penicillium, 6 days incubation
Procedure: The kiwifruit ‘Hongyang’-based screening assays (assays 8 and 9) were conducted in laboratories at the Plant and Food Research Ruakura Research Centre, Hamilton, New Zealand (PFR). PFR assays focused on wound application of YBCA5 treatment, a commercial biological control treatment and a fungicide were used as comparative controls.
The ‘Hongyang’ kiwifruit were sourced from the PFR Riwaka Research Orchard in Motueka on 12 Apr. 2017 for fruit based assays 8 and 9. Penicillium spp. Phomopsis spp., Alternaria spp., Colletotrichum spp., Cryptosporiopsis spp. and Botrytis spp. inoculation assays were carried out on ‘Hongyang’ kiwifruit that were picked at the harvest mature stage. […]
For assays 8 and 9, two sterile paper towels were placed beneath Plix cut-outs, moistened with 40 mL SDW and each fruit placed in disposable lunch boxes (Plix Extra Deep 45/45, containing five Plix fruit cut-outs to prevent fruit from moving), sealed, then placed into large (40 L) plastic bins which were closed to ensure high relative humidity for the first 24 h and incubated on the lab bench at 24° C. […] After 6 days, (Alternaria spp. Botrytis spp., Penicillium spp., Phomopsis spp., Colletotrichum spp.) and 7 days (Cryptosporiopsis spp.), the severity of fungal rot was assessed for each treatment by measuring the lesion length (mm) along the axis of the fruit. […]

CC(C)NC(=O)N1CC(=O)N(c2cc(Cl)cc(Cl)c2)C1=O [iprodione]
lesion size, comparison between treatments: significantly smaller than the untreated control
